Laboratory results: US11117907B2, “Curcuminoid-inspired synthetic compounds as anti-tumor agents” (University of North Florida Board of Trustees, priority 2017, dated 2021)
Where two headings read alike, the source gives them in different places.

Legend:
[1] = system: MM cell lines (MM1.S, KMS11, RPMI-8226); settings: cited from earlier work
[2] = system: PBMC; experiment: Cell viability assay (CellTiter-Glo 2.0), PBMC from healthy donors; format: cell-based; settings: Homo sapiens, Table 7, run number 2, 72 h
Procedure: Peripheral blood mononuclear cells (PBMCs) were collected from healthy, i.e. non-cancerous, donors (CONTROL).
(§1) RPMI-8266 (Multiple myeloma cell line, MM) and PBCMs cells were seeded into 384-well culture plates at 2×10^3 cell/well in quadruplicate, and incubated at 5% CO2, 37° C. The culture media was replaced with compounds (ranges from 0-10,000 nM) and incubated for 72 h. Bortezomib was spiked in control. […] CellTiter-Glo® 2.0 reagent was added at equal volume to the cell culture medium present in each well and the plate was left to incubate at room temperature for 10 minutes to stabilize the luminescent signal.
Cell lines and PBCMs (peripheral blood mononuclear cells from healthy donors as non-cancer CONTROL) were seeded in quadruplicate (technical replicates). CellTiter-Glo® 2.0 reagent equal to the volume of cell culture medium present in each well was added and the plate was left to incubate at room temperature for 10 min to stabilize the luminescent signal. Luminescent signal/intensity from the 384-well plate was read on a plate reader. […]
Cell lines and PBCMs (peripheral blood mononuclear cells from healthy donors as non-cancer CONTROL) were seeded in quadruplicate (technical replicates). […] Luminescent signal/intensity from the 384-well plate was read on a plate reader. […]

[3] = system: RPMI8226; settings: control; typically; read-out: EC50 in RPMI8266, typical value; cited from earlier work
[4] = system: PBMC; settings: comparison value; read-out: IC50 of PBMCs; cited from earlier work
[5] = system: RPMI8226; experiment: Cell viability assay to determine EC50 (CellTiter-Glo 2.0), RPMI8226; format: cell-based; settings: Homo sapiens, RPMI-8226; Table 7, run number 2; 72 h
Procedure: as §1
Cell lines and PBCMs (peripheral blood mononuclear cells from healthy donors as non-cancer CONTROL) were seeded in quadruplicate (technical replicates). CellTiter-Glo® 2.0 reagent equal to the volume of cell culture medium present in each well was added and the plate was left to incubate at room temperature for 10 min to stabilize the luminescent signal. Luminescent signal/intensity from the 384-well plate was read on a plate reader. Cells/cell lines used: BCWM.1 (Waldenstrom macroglobulinemia cell line, WM); RPMI-8266 (Multiple myeloma cell line, MM); RS4; 11 (Acute lymphoblastic leukemia, ALL)* reported to be dependent on Bcl-2 protein.

EC50 [5]: 10.6 nM
Compound: CC(C)C[C@H](NC(=O)[C@H](Cc1ccccc1)NC(=O)c1cnccn1)B(O)O [Bortezomib]
in vitro tumor-specificity profile ([1]; MM cells versus PBMCs): 2-3 fold
IC50 ([1]; comparison value, read-out: IC50 in MM cells): ~2 nM
EC50 [2]: 60.5 nM
EC50 [3]: 10 to 16 nM
IC50 [4]: 4 to 6 nM
